In data set [1] the test system is HCA-7 cells. Nature of the data set: MTT reduction assay, HCA-7 survival/proliferation. The class given is cell-based, human. The method, then:
LS174T and CACO-2 were a generous gift of Prof. F. Dall'Olio (Dept. of Experimental Pathology, University of Bologna, Italy); HCA-7 cells were purchased from European Collection of Cell Cultures. These lines were cultured in Dulbecco's modified Eagle's Medium with 4.5 g/L glucose (DMEM), supplemented with 10% (v/v) heat-inactivated FBS, 2 mM L-glutamine, 100 U/ml penicillin and 100 μg/ml streptomycin. Cells were grown in monolayers, incubated at 37° C. in a humidified atmosphere of 95% air and 5% CO2 and routinely passaged using trypsin-EDTA 0.025%. For treatment with licofelone ([…] GmbH, Ulm, Germany), exponentially growing cells were trypsinized, seeded in regular medium (2×10^4 cells/well in 96-well plates; 1.2×10^5 cells/well in 24-well plates; 6×10^5 cells/well in 6-well plates; 1.5×10^6 cells in 25 cm^2 flasks) and incubated for 24 h. The medium was then replaced either with control medium or with medium containing 100, 125 or 150 μM licofelone. This drug was dissolved in dimethyl sulfoxide (DMSO) and diluted into the medium to obtain the required final concentration before each experiment. Fresh medium, alone or supplemented with licofelone, was completely replaced every 48 hours. To control for an effect of DMSO, control samples were treated in parallel with an equivalent concentration of this solvent. The effect of licofelone on HCA-7 survival/proliferation was determined colourimetrically using the MTT assay. MTT is a yellow-coloured tetrazolium salt that is taken up and cleaved only by metabolically active cells, which reduce it to a coloured, water-insoluble formazan salt. The solubilized formazan product can be quantified via absorbance at 570 nm measured using a 96-well-format spectrophotometer and the absorbance correlates directly with cell number. 2×10^4 cells/well were plated in a 100 μl volume in 96-well plates and grown for 24 h in DMEM supplemented with 10% FBS. Complete medium containing the indicated amount of licofelone, alone or in association with exogenous PGE2 and/or LTB4), was then replaced to each well. At the indicated times, 10 μl of MTT (5 mg/ml) was added and cells were incubated at 37° C. for 4 hours. The tetrazolium crystals were solubilized by the addition of 10% SDS in 0.01 N HCl. After overnight incubation at 37° C., the absorbance was measured at 570 nm using a 96-well spectrophotometric microplate reader. Survival/proliferation rate was calculated as follows (A570 treatment/A570 control×100). All determinations were carried out in triplicate.
For orientation: Tetrazolium dyes change colour on reduction, which living cells bring about.

The nature of data set [2]: Plasma ML3000 level after immediate release dosage form. Particulars: for 8 hours. Type of data set: in vivo.
The subject of data set [3] is HCA-7 cells. Put plainly: Cell-cycle distribution by flow cytometry (propidium iodide), sub-G1 cells. Type of data set: cell-based, human. To be noted: 0-150 μM, after 48 hours of treatment. The procedure: For treatment with licofelone ([…] GmbH, Ulm, Germany), exponentially growing cells were trypsinized, seeded in regular medium (2×10^4 cells/well in 96-well plates; 1.2×10^5 cells/well in 24-well plates; 6×10^5 cells/well in 6-well plates; 1.5×10^6 cells in 25 cm^2 flasks) and incubated for 24 h. The medium was then replaced either with control medium or with medium containing 100, 125 or 150 μM licofelone. This drug was dissolved in dimethyl sulfoxide (DMSO) and diluted into the medium to obtain the required final concentration before each experiment. Fresh medium, alone or supplemented with licofelone, was completely replaced every 48 hours. To control for an effect of DMSO, control samples were treated in parallel with an equivalent concentration of this solvent. The cell-cycle distribution for control and drug-treated cells was determined after 24 and 48 hours of treatment. Cells were seeded at the density of 6×10^5 cells/well onto 6-well plates and allowed to adhere for 24 h. Cells were then incubated with licofelone for 24 and 48 hours and then harvested by trypsinization. […] Subsequently, DNA content was measured using a flow cytometer and the cell-cycle distribution was calculated using the Phoenix Multicycle for Windows cell-cycle analysis software. A minimum of 10'000 events were measured for each sample.

Data set [4] concerns LTB4 production by HCA-7 cells. Nature of the data set: LTB4 level in HCA-7 culture medium, enzyme immunoassay. The class given is cell-based, human. Particulars: 150 μM, 24 hours, serum-free medium. The method, then:
(§1) For treatment with licofelone ([…] GmbH, Ulm, Germany), exponentially growing cells were trypsinized, seeded in regular medium (2×10^4 cells/well in 96-well plates; 1.2×10^5 cells/well in 24-well plates; 6×10^5 cells/well in 6-well plates; 1.5×10^6 cells in 25 cm^2 flasks) and incubated for 24 h. The medium was then replaced either with control medium or with medium containing 100, 125 or 150 μM licofelone. This drug was dissolved in dimethyl sulfoxide (DMSO) and diluted into the medium to obtain the required final concentration before each experiment. Fresh medium, alone or supplemented with licofelone, was completely replaced every 48 hours. To control for an effect of DMSO, control samples were treated in parallel with an equivalent concentration of this solvent. For determination of PGE2 and LTB4 production, HCA-7 were seeded in a 24-well plates at the density of 1.2×10^5 cells/well and grown in complete medium for 24 hours. Cells were then serum-starved overnight before being exposed to increasing doses of licofelone (100-150 μM) in serum-free medium for additional 24 hours. The harvested medium was centrifuged at 500×g for 5 min (4° C.) to remove floating cells and the supernatant was collected and assayed following customer instructions. The levels of PGE2 and LTB4 were measured by enzyme immunoassay. Results are expressed as picograms/ml of medium. […]

The next data set has as its system PARP. Put plainly: Western blot of PARP cleavage in HCA-7 cells. Type of data set: cell-based, human. Particulars: licofelone 150 μM, almost complete at 24 hours. The method, then: (§2) For Western blot analysis, cells were seeded in a 25 cm^2 flask at the density of 1.5×10^6 and grown in complete medium for 24 hours. At the end of incubation cells were scraped from flasks and lysed in a buffer containing 10 mM Tris, 1% SDS, 1 mM Na orthovanadate and a protease inhibitors cocktail. Samples containing 50 μg of protein were subjected to gel electrophoresis in 10% polyacrylamide gels in the presence of SDS. The proteins were then transferred electrophoretically to a Hybond-C nitrocellulose membrane at 300 V for 1 h at 4° C. The membrane was subsequently immersed in 0.5% Ponceau S in 1% acetic acid to stain the proteins and to confirm that equal amounts of protein were loaded in each lane and transferred efficiently. After incubation overnight in a blocking solution containing 5% bovine skim milk powder in 10 mM phosphate buffered saline (PBS, pH 7.4), the nitrocellulose membrane was incubated for 1 h with primary antibodies: anti COX-1, anti COX-2 and anti 5-LOX were used in HCA-7, Caco-2 and LS174T at a dilution of 1:500; anti Caspase-3 and anti PARP-1 were used in HCA-7 at the dilution of 1:250. The membrane was then washed with PBS buffer to remove the excess unbound antibodies and incubated for 1 h with HRP-conjugated secondary antibody, at a dilution of 1:1000. Detection was performed by using the ECL procedure developed by Amersham. […]
On the technique in general: A western blot detects proteins with antibodies after separation by electrophoresis.

In data set [5] the test system is PGE2 production by HCA-7 cells. Nature of the data set: PGE2 level in HCA-7 culture medium, enzyme immunoassay. The class given is cell-based, human. To be noted: all doses tested (100-150 μM), 24 hours. The method, then:
as §1

A further data set deals with caspase-3. Put plainly: Western blot of caspase-3 cleavage in HCA-7 cells. Particulars: licofelone 150 μM, 0-24 hours, maximum after 24 hours. Type of data set: cell-based, human. The method, then: as §2
Data set [6] relates to HCA-7 cells. Put plainly: Cell morphology: phase-contrast and Hoechst 33342 fluorescence microscopy. To be noted: licofelone 150 μM. Type of data set: cell-based, human. The procedure: Morphological changes in the nuclear chromatin of cells undergoing apoptosis were detected by staining with the DNA-binding fluorochrome bis-benzimide stain. Briefly, HCA-7 were seeded in a flat-bottomed 96-well plate at the density of 2×10^4 cells/well and grown for 24 hours in complete medium. Cells where then cultured in the presence or absence of licofelone 150 μM at the indicated times; at the end of incubation, Hoechst 33342 (1 μg/ml) was added to each well for at least 20 min. at 37° C. HCA-7 cells were then washed with phosphate-buffered saline (PBS), fixed in 4% formaldehyde and observed under a fluorescence microscope.

By IC50 is commonly meant the concentration that inhibits the measured activity by half. Read a low IC50 as greater potency in that assay. What is called inhibition is the relative decrease from the control value, in per cent. `CC1(C)Cc2c(-c3ccccc3)c(-c3ccc(Cl)cc3)c(CC(=O)O)n2C1` [licofelone, [2,2-dimethyl-6-(4-chlorophenyl)-7-phenyl-2,3-dihydro-1H-pyrrolizine-5 yl]-acetic acid]: in the data set on HCA-7 cells [1] (150 μM licofelone, 48 hours, exogenous PGE2 and LTB4 added), the “reversal of antiproliferative effect by exogenous PGE2 or LTB4” value is “neither PGE2 or LTB4 administration was able to reverse the antiproliferative effect”. The IC50 is 125 ± 6.25 µM in the data set with HCA-7 cells [1] (Homo sapiens, HCA-7, after 24 hours of treatment) and 72 ± 3.6 µM in the data set with HCA-7 cells [1] (Homo sapiens, HCA-7, after 48 hours of treatment). Further, the inhibition at 150 µM with HCA-7 cells [1] (Homo sapiens, HCA-7, licofelone 150 μM, read-out: inhibition of HCA-7 growth) is around 90%. Also, the “plasma ML3000 concentration maintained” value is “above 100 ng/mL” in data set [2] (dose 2.5 mg/kg) and above 200 ng/mL in data set [2] (dose 5 mg/kg). Moreover, the “accumulation of sub-G1 phase cells, maximum” value in the data set with HCA-7 cells [3] is 85%. The “reduction of LTB4 levels with respect to untreated cells” value in data set [4] was determined as 85%. In addition, in the data set on PARP, the “degradation of PARP (85-kDa band)” value was “marked degradation of PARP”. The “inhibition of PGE2 production” value in data set [5] was “strongly inhibited PGE2 production”. Moreover, in the data set on caspase-3, the “cleavage of 34-kDa pro-enzyme caspase-3 to active 17-kDa form” value is “strong and time-dependent cleavage”. Also, in the data set with HCA-7 cells [6], the “appearance of membrane blebbing after administration of the drug” value was in the range of 10 to 12 h. In addition, the “morphological changes of nuclei after drug addition” value in the data set on HCA-7 cells [6] (Hoechst staining) is reported as 16-18 hours.

Source of the values: US20100099730A1, “ANNELLATED PYRROLE COMPOUNDS FOR CANCER MANAGEMENT” (MERCKLE GMBH, priority 2006, published 2010).
